BindingDB's records for doi:10.1021/jm070654j (University of Zurich, 2008)

Target: Cyclin-dependent kinase 1 (Homo sapiens, UniProt P06493)
Test: Inhibition of CDK1

Cyclin-dependent kinase 1, sequence (P06493 whole entry): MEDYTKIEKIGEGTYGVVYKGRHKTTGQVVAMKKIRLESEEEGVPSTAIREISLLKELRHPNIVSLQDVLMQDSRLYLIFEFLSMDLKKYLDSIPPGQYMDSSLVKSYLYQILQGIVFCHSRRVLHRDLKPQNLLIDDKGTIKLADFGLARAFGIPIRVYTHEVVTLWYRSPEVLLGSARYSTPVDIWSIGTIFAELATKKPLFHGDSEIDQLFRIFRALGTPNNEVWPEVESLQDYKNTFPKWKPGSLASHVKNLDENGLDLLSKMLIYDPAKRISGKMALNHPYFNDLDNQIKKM

IC50 [nM]	SMILES
> 1000	Cc1cc(Cl)cc2c1NC(=O)C2C=Nc1ccc(S(N)(=O)=O)cc1 (stereo not drawn)
> 1000	Cc1cccc2c1NC(=O)C2C=Nc1ccc(S(N)(=O)=O)cc1 (stereo not drawn)
> 1000	Cc1cc(C)c2c(c1)C(C=Nc1ccc(S(N)(=O)=O)cc1)C(=O)N2 (stereo not drawn)
